Row | melting point | SMILES
1 | 178 to 181 °C | Cc1cc(Nc2cc(N3CCNCC3)nc(Sc3ccc(NC(=O)C(C)(C)C)cc3)n2)[nH]n1 [Compound V-3]
2 | 158 to 159 °C | O=C(Nc1ccc(Sc2nc(Nc3ccn[nH]3)cc(N3CCN(CC(=O)N4CCOCC4)CC3)n2)cc1)C1CC1 [Compound I-47]
3 | 167 to 169 °C | CC(C)(C)N1CCN(c2cc(Nc3ccn[nH]3)nc(Sc3ccc(NC(=O)C4CC4)cc3)n2)CC1 [Compound I-53]
4 | 238 to 239 °C | Cc1cc(Nc2cc(N3CCOCC3)nc(Sc3ccc(NC(=O)C4CC4)cc3)n2)[nH]n1 [Compound I-61]

Second part, the compound before the results:

Row | SMILES | melting point
5 | CS(=O)(=O)N1CCN(c2cc(Nc3ccn[nH]3)nc(Sc3ccc(NC(=O)C4CC4)cc3)n2)CC1 [Compound I-42] | 168 to 169 °C
6 | CC1CN(c2cc(Nc3ccn[nH]3)nc(Sc3ccc(NC(=O)C4CC4)cc3)n2)CCN1 (centres unmarked) [Compound I-46] | 160 to 161 °C
7 | CCC(=O)Nc1ccc(Sc2nc(Nc3cc(C)n[nH]3)cc(N3CCC(N)C3)n2)cc1 (centres unmarked) [Compound I-20] | 159 to 160 °C
8 | N#CCCN1CCN(c2cc(Nc3ccn[nH]3)nc(Sc3ccc(NC(=O)C4CC4)cc3)n2)CC1 [Compound I-37] | 131 to 132 °C
9 | CCC(=O)Nc1ccc(Sc2nc(Nc3cc(C)n[nH]3)cc(N3CC(C)NC(C)C3)n2)cc1 (centres unmarked) [Compound I-19] | 151 to 152 °C
10 | Cc1cc(Nc2cc(NCCN3CCCC3)nc(Sc3ccc(NC(=O)C4CC4)cc3)n2)[nH]n1 [Compound I-29] | 220 to 222 °C
11 | CS(=O)(=O)CCN1CCN(c2cc(Nc3ccn[nH]3)nc(Sc3ccc(NC(=O)C4CC4)cc3)n2)CC1 [Compound I-45] | 154 to 155 °C

From patent US8268829B2, “Substituted pyrimidines useful as protein kinase inhibitors” (Vertex Pharmaceuticals Inc., priority 2002, dated 2012)
